Experimental data reported in patent US7825256B2, “Inducible nitric oxide synthase dimerization inhibitors” (Kalypsys, Inc., priority 2004, dated 2010).

The molecules below were run against T1, heNOS (Homo sapiens, UniProt P29474) (assay: DAN assay, heNOS expressed in transiently transfected HEK293 cells). Details: HEK293 cells transiently transfected with heNOS.
T1 construct: expressed in transfected cells; host or cells: HEK293
T1 sequence (P29474 2-1203 limits assumed): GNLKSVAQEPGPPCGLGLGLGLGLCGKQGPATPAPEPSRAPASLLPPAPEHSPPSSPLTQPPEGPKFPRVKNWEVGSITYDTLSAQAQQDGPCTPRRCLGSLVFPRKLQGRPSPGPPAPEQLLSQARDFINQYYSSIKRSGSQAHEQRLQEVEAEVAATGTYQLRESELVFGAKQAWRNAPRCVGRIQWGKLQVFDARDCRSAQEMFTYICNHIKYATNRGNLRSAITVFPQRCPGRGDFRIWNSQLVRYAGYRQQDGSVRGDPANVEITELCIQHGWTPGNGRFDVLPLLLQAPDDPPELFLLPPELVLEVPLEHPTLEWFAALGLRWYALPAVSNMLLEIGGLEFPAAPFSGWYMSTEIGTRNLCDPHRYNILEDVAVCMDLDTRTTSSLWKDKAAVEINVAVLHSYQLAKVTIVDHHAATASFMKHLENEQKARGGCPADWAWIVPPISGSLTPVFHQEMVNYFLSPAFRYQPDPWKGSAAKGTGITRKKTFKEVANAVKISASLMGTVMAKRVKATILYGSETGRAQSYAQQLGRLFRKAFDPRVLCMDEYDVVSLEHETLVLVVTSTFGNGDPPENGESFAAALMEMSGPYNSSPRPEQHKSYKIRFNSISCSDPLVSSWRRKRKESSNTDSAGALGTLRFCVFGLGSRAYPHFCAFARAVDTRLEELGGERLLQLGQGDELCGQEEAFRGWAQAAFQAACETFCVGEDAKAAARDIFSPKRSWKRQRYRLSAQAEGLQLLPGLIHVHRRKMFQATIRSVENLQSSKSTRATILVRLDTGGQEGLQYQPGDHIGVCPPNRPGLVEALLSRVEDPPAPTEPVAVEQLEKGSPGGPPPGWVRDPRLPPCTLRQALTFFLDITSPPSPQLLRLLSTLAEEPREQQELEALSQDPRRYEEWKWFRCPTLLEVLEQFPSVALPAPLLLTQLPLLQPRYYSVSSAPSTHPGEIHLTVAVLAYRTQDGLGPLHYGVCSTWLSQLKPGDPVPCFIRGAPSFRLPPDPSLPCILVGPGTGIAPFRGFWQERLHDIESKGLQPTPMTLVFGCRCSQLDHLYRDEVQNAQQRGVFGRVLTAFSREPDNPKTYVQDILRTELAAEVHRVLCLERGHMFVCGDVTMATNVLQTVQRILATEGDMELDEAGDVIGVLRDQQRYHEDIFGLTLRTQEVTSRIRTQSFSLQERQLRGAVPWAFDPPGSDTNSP
Assay type: cell-based
Description: The source of nitric oxide synthase (NOS) enzyme can be generated in several ways including induction of endogenous iNOS using cytokines and/or lipopolysaccharide (LPS) in various cell types known in the art. Alternatively, the gene encoding the enzyme can be cloned and the enzyme can be generated in cells via heterologous expression from a transient or stable expression plasmid with suitable features for protein expression as are known in the art. Enzymatic activity (nitric oxide production) is calcium independent for iNOS, while the constitutive NOS isoforms, nNOS and eNOS, become active with the addition of various cofactors added to cellular media or extract as are well known in the art. Enzymes specified in Table 1 were expressed in HEK293 cells transiently transfected with the indicated NOS isoform.
A major metabolic pathway for nitric oxide is to nitrate and nitrite, which are stable metabolites within tissue culture, tissue, plasma, and urine (S Moncada, A Higgs, N Eng J Med 329, 2002 (1993)).
The level of nitrate or nitrite in the specimen can be quantified by any method known in the art which provides adequate sensitivity and reproducibility. A variety of protocols have also been described for detecting and quantifying nitrite and nitrate levels in biological fluids by ion chromatography (e.g., S A Everett et al., J. Chromatogr. 706, 437 (1995); J M Monaghan et al., J. Chromatogr. 770, 143 (1997)), high-performance liquid chromatography (e.g., M Kelm et al., Cardiovasc. Res. 41, 765 (1999)), and capillary electrophoresis (M A Friedberg et al., J. Chromatogr. 781, 491 (1997)). […] Using 2,3-diaminonaphthalene (“DAN”), researchers have developed a rapid, quantitative fluorometric assay that can detect from 10 nM to 10 μM nitrite and is compatible with a multi-well microplate format. […]
A specimen can be processed prior to determination of nitrate or nitrite as required by the quantification method, or in order to improve the results, or for the convenience of the investigator. […]
With `Cc1cc(C2CCCN2C(=O)CNCc2ccc3c(c2)OCO3)nc(-n2ccnc2)n1` (stereo not drawn) [Example 5] the EC50 was greater than 10 µM. In the case of `CN(CCCNCc1ccc2c(c1)OCO2)c1nc(-n2ccnc2)ns1` [Example 2, N′-Benzo[1,3]dioxol-5-ylmethyl-N-(3-imidazol-1-yl-[1,2,4]thiadiazol-5-yl)-N-methyl-propane-1,3-diamine], the EC50 is reported as greater than 10 µM. For `Cc1cc(C2CCCN2C(=O)NCCc2ccc3c(c2)OCO3)nc(-n2ccnc2)n1` (stereo not drawn) [Example 4, 2-(2-Imidazol-1-yl-6-methyl-pyrimidin-4-yl)-pyrrolidine-1-carboxylic acid (2-benzo[1,3]dioxol-5-yl-ethyl)-amide], the EC50 was greater than 10 µM.
